Measured values published in patent publication US12729382B2, “Tea plant CsVAAT3 gene and use thereof” (Anhui Agricultural University, priority 2022, dated 2026).

Test system: wild-type BY4743 and yeast vacuolar amino acid mutants YPQ2, AVT2, AVT6
Test: Yeast dotting growth phenotype on high-concentration theanine medium
Type: cell-based
Details: theanine 50 mM
Procedure: Yeast mutants YPQ2, AVT2, and AVT6 are high-concentration theanine-sensitive strains, and their growth is inhibited in a high-concentration theanine environment, which was used to verify the stress resistance of the selected genes. The YPQ2 strain was streaked on YPDA Agar Medium and cultured upside down in a constant temperature incubator at 28° C. for 2-3 days. A well-grown single colony was picked in a 2 mL centrifuge tube, added with 1 mL of YPDA Liquid Medium, and incubated at 28° C. on a shaker at 180 r/min for one day. 200 μL of well-grown yeast suspension was transferred to 30 mL of YPDA Liquid Medium, and incubated on a shaker at 28° C. and 180 r/min for 12-24 h. […] 500 μL of PEG mixture and 5 μL of DTT (1 M, ready for use) were added and vortexed. […]
A single colony was picked in 20 mL of SD-U […] medium and shaken to an OD600 value of about 1.0 at 28° C. and 180 r/min (for about 48 h); 4 mL of yeast suspension was pipetted and centrifuged at 5,000 rpm for 2 min, the supernatant was discarded (under aseptic operation), cells were resuspended with sterile water, and the OD600 value was detected; the yeast suspension was diluted with sterile water to an OD600 value of 0.6 (the difference between the OD600 values of each sample should not exceed 0.02); (under aseptic operation) the yeast suspension was diluted to 10^0, 10^−1, 10^−2, and 10^−3 in turn. […]

With `CCNC(=O)CC[C@H](N)C(=O)O` [theanine] the “growth of yeast under theanine treatment” value (CsVAAT3-transformed yeast mutants (pDR196-CsVAAT3)) was “normal growth state” and the “growth of yeast under theanine treatment” value (wild-type BY4743 and mutants YPQ2, AVT2, AVT6 (empty vector pDR196), solid medium, 30° C., about three days) was “significantly inhibited”.
